ChEMBL document CHEMBL1201861, “Genomics of Drug Sensitity in Cancer screening data, Wellcome Trust Sanger Institute”
pIC50: −log10 of the molar value.

Columns and labels:
Assay in all cases: cells
Format in all cases: functional, cell-based, Homo sapiens
[1] = tested on: SKG-IIIa; settings: Homo sapiens, SKG-IIIa;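 also: cell growth inhibition, read out with a cell viability assay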
Description: SANGER: Inhibition of human SKG-IIIa cell growth in a cell viability assay.

[2] = tested on: TE-1; settings: Homo sapiens, TE-1;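 also: growth inhibition of the human TE-1 cell line, read out with a cell viability assay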
Description: SANGER: Inhibition of human TE-1 cell growth in a cell viability assay.

[3] = tested on: NB13; settings: Homo sapiens, NB13;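 also: cell viability readout measuring growth inhibition of human NB13 cells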
Description: SANGER: Inhibition of human NB13 cell growth in a cell viability assay.

[4] = tested on: OCI-AML2; settings: Homo sapiens, OCI-AML2;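 also: growth inhibition of OCI-AML2 cells, read out with a cell viability assay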
Description: SANGER: Inhibition of human OCI-AML2 cell growth in a cell viability assay.

[5] = tested on: ASPC1; settings: Homo sapiens, ASPC1;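 also: growth inhibition of AsPC-1 cells, read out with a cell viability assay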
Description: SANGER: Inhibition of human AsPC-1 cell growth in a cell viability assay.

[6] = tested on: T98G; settings: Homo sapiens, T98G;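 also: growth inhibition of T98G cells, read out by a cell viability assay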
Description: SANGER: Inhibition of human T98G cell growth in a cell viability assay.

[7] = tested on: NCI-H1304; settings: Homo sapiens, NCI-H1304;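 also: growth inhibition of the cancer cell line, measured in a cell viability assay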
Description: SANGER: Inhibition of human NCI-H1304 cell growth in a cell viability assay.

[8] = tested on: NCI-H2087; settings: Homo sapiens, NCI-H2087;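 also: growth inhibition determined with a cell viability readout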
Description: SANGER: Inhibition of human NCI-H2087 cell growth in a cell viability assay.

[9] = tested on: HOP-62; settings: Homo sapiens, HOP-62;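 also: cell growth inhibition determined with a viability assay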
Description: SANGER: Inhibition of human HOP-62 cell growth in a cell viability assay.

[10] = tested on: NCI-H1437; settings: Homo sapiens, NCI-H1437;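 also: growth inhibition of human NCI-H1437 cells, read out by a cell viability assay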
Description: SANGER: Inhibition of human NCI-H1437 cell growth in a cell viability assay.

[11] = tested on: KU812 cell line; settings: Homo sapiens, KU812;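 also: growth inhibition of KU812 cells, read out with a cell viability assay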
Description: SANGER: Inhibition of human KU812 cell growth in a cell viability assay.

[12] = tested on: D-392MG; settings: Homo sapiens, D-392MG
[13] = tested on: HO-1-N-1; settings: Homo sapiens, HO-1-N-1;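 also: growth inhibition of human HO-1-N-1 cells, read out with a cell viability assay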
Description: SANGER: Inhibition of human HO-1-N-1 cell growth in a cell viability assay.

[14] = tested on: CAL-33; settings: Homo sapiens, CAL-33;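 also: growth inhibition of CAL-33 cells, read out with a cell viability assay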
Description: SANGER: Inhibition of human CAL-33 cell growth in a cell viability assay.

[15] = tested on: KY821; settings: Homo sapiens, KY821;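 also: growth inhibition of human KY821 cells, read out by a cell viability assay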
Description: SANGER: Inhibition of human KY821 cell growth in a cell viability assay.

[16] = tested on: KARPAS-299; settings: Homo sapiens, KARPAS-299
Description: SANGER: Inhibition of human KARPAS-299 cell growth in a cell viability assay.

[17] = tested on: CAPAN-1; settings: Homo sapiens, CAPAN-1;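 also: growth suppression of CAPAN-1 cells, read out by a cell viability assay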
Description: SANGER: Inhibition of human CAPAN-1 cell growth in a cell viability assay.

[18] = tested on: D-336MG; settings: Homo sapiens, D-336MG
Description: SANGER: Inhibition of human D-336MG cell growth in a cell viability assay.

[19] = tested on: CTB-1; settings: Homo sapiens, CTB-1
Description: SANGER: Inhibition of human CTB-1 cell growth in a cell viability assay.

[20] = tested on: PC-14; settings: Homo sapiens, PC-14;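 also: cell viability assay measuring inhibition of PC-14 cell growth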
Description: SANGER: Inhibition of human PC-14 cell growth in a cell viability assay.

[21] = tested on: UMUC3; settings: Homo sapiens, UMUC3;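 also: growth inhibition of human UM-UC-3 cells, read out with a cell viability assay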
Description: SANGER: Inhibition of human UM-UC-3 cell growth in a cell viability assay.

[22] = tested on: LN-405; settings: Homo sapiens, LN-405
Description: SANGER: Inhibition of human LN-405 cell growth in a cell viability assay.

[23] = tested on: Lu-65; settings: Homo sapiens, Lu-65;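 also: growth inhibition of Lu-65 cancer cells, read out by a cell viability assay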
Description: SANGER: Inhibition of human LU-65 cell growth in a cell viability assay.

[24] = tested on: NCI-H1581; settings: Homo sapiens, NCI-H1581;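 also: cell growth inhibition read out by a viability assay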
Description: SANGER: Inhibition of human NCI-H1581 cell growth in a cell viability assay.

[25] = tested on: SBC-1; settings: Homo sapiens, SBC-1;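 also: cell viability assay measuring growth inhibition of the SBC-1 cell line, IC50 being the concentration that halves growth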
Description: SANGER: Inhibition of human SBC-1 cell growth in a cell viability assay.

[26] = tested on: LOX IMVI; settings: Homo sapiens, LOX IMVI
Description: SANGER: Inhibition of human LOXIMVI cell growth in a cell viability assay.

[27] = tested on: HCC1395; settings: Homo sapiens, HCC1395;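 also: growth inhibition of HCC1395 cells, read out by a cell viability assay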
Description: SANGER: Inhibition of human HCC1395 cell growth in a cell viability assay.

[28] = tested on: RPMI-2650; settings: Homo sapiens, RPMI-2650
Description: SANGER: Inhibition of human RPMI-2650 cell growth in a cell viability assay.

[29] = tested on: NCI-H2347; settings: Homo sapiens, NCI-H2347;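 also: growth inhibition of the cell line, read out with a cell viability assay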
Description: SANGER: Inhibition of human NCI-H2347 cell growth in a cell viability assay.

[30] = tested on: 8505C; settings: Homo sapiens, 8505C
Description: SANGER: Inhibition of human 8505C cell growth in a cell viability assay.

[31] = tested on: BXPC-3; settings: Homo sapiens, BXPC-3;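 also: growth inhibition of human BxPC-3 cells, read out by a cell viability assay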
Description: SANGER: Inhibition of human BxPC-3 cell growth in a cell viability assay.

[32] = tested on: FTC-133; settings: Homo sapiens, FTC-133
[33] = tested on: G-401; settings: Homo sapiens, G-401
Description: SANGER: Inhibition of human G-401 cell growth in a cell viability assay.

[34] = tested on: MDA-MB-453; settings: Homo sapiens, MDA-MB-453
Description: SANGER: Inhibition of human MDA-MB-453 cell growth in a cell viability assay.

[35] = tested on: Huh-7; settings: Homo sapiens, Huh-7;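 also: HuH-7 cell growth inhibition, read out with a cell viability assay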
Description: SANGER: Inhibition of human HuH-7 cell growth in a cell viability assay.

[36] = tested on: GI-ME-N; settings: Homo sapiens, GI-ME-N;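 also: growth inhibition of human GI-ME-N cells, read out with a cell viability assay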
Description: SANGER: Inhibition of human GI-ME-N cell growth in a cell viability assay.

[37] = tested on: A 172; settings: Homo sapiens, A 172;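 also: growth inhibition of A172 cells, measured with a cell viability readout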
Description: SANGER: Inhibition of human A172 cell growth in a cell viability assay.

[38] = tested on: MZ2-MEL; settings: Homo sapiens, MZ2-MEL;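 also: growth inhibition of MZ2-MEL cells read out with a cell viability assay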
Description: SANGER: Inhibition of human MZ2-MEL cell growth in a cell viability assay.

[39] = tested on: NCI-H358; settings: Homo sapiens, NCI-H358;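 also: growth inhibition of NCI-H358 human cells, read out with a cell viability assay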
Description: SANGER: Inhibition of human NCI-H358 cell growth in a cell viability assay.

[40] = tested on: GAK; settings: Homo sapiens, GAK;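 also: cell growth inhibition read out by a cell viability assay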
Description: SANGER: Inhibition of human GAK cell growth in a cell viability assay.

[41] = tested on: MKN-45; settings: Homo sapiens, MKN-45;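 also: growth inhibition of human MKN-45 cells, measured with a cell viability assay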
Description: SANGER: Inhibition of human MKN45 cell growth in a cell viability assay.

CC(C)CCN1c2nc(Nc3cc(F)c(O)c(F)c3)ncc2N(C)C(=O)C1C (stereo not drawn)
pIC50 [1]: < 5.30 | pIC50 [2]: < 5.30 | pIC50 [3]: < 5.30 | pIC50 [4]: < 5.30 | pIC50 [5]: < 5.30 | pIC50 [6]: 5.48 | pIC50 [7]: < 5.30 | pIC50 [8]: < 5.30 | pIC50 [9]: 5.37 | pIC50 [10]: 5.31 | pIC50 [11]: 6.20 | pIC50 [12]: < 5.30 | pIC50 [13]: 5.42 | pIC50 [14]: 5.45 | pIC50 [15]: 6.05 | pIC50 [16]: < 5.30 | pIC50 [17]: < 5.30 | pIC50 [18]: < 5.30 | pIC50 [19]: 5.84 | pIC50 [20]: < 5.30 | pIC50 [21]: < 5.30 | pIC50 [22]: < 5.30 | pIC50 [23]: < 5.30 | pIC50 [24]: < 5.30 | pIC50 [25]: 6.16 | pIC50 [26]: 5.69 | pIC50 [27]: < 5.30 | pIC50 [28]: < 5.30 | pIC50 [29]: < 5.30 | pIC50 [30]: 5.35 | pIC50 [31]: < 5.30 | pIC50 [32]: < 5.30 | pIC50 [33]: < 5.30 | pIC50 [34]: < 5.30 | pIC50 [35]: < 5.30 | pIC50 [36]: < 5.30 | pIC50 [37]: 6.29 | pIC50 [38]: < 5.30 | pIC50 [39]: < 5.30 | pIC50 [40]: < 5.30 | pIC50 [41]: < 5.30

Cc1cn(-c2cc(NC(=O)c3ccc(C)c(Nc4nccc(-c5cccnc5)n4)c3)cc(C(F)(F)F)c2)cn1 [NILOTINIB]
pIC50 [1]: < 5.70 | pIC50 [2]: < 5.70 | pIC50 [3]: < 5.70 | pIC50 [4]: < 5.70 | pIC50 [5]: < 5.70 | pIC50 [6]: < 5.70 | pIC50 [7]: < 5.70 | pIC50 [8]: < 5.70 | pIC50 [9]: 5.74 | pIC50 [10]: < 5.70 | pIC50 [11]: 8.61 | pIC50 [12]: < 5.70 | pIC50 [13]: < 5.70 | pIC50 [14]: < 5.70 | pIC50 [15]: < 5.70 | pIC50 [16]: < 5.70 | pIC50 [17]: < 5.70 | pIC50 [18]: < 5.70 | pIC50 [19]: < 5.70 | pIC50 [20]: < 5.70 | pIC50 [21]: < 5.70 | pIC50 [22]: < 5.70 | pIC50 [23]: < 5.70 | pIC50 [24]: < 5.70 | pIC50 [25]: < 5.70 | pIC50 [26]: < 5.70 | pIC50 [27]: < 5.70 | pIC50 [28]: < 5.70 | pIC50 [29]: < 5.70 | pIC50 [30]: < 5.70 | pIC50 [31]: < 5.70 | pIC50 [32]: < 5.70 | pIC50 [33]: < 5.70 | pIC50 [34]: < 5.70 | pIC50 [35]: < 5.70 | pIC50 [36]: < 5.70 | pIC50 [37]: < 5.70 | pIC50 [38]: < 5.70 | pIC50 [39]: < 5.70 | pIC50 [40]: < 5.70 | pIC50 [41]: < 5.70

Nc1cccc2c1CN(C1CCC(=O)NC1=O)C2=O (stereo not drawn) [LENALIDOMIDE]
pIC50 [1]: < 5.30 | pIC50 [2]: < 5.30 | pIC50 [3]: < 5.30 | pIC50 [4]: < 5.30 | pIC50 [5]: < 5.30 | pIC50 [6]: < 5.30 | pIC50 [7]: < 5.30 | pIC50 [8]: < 5.30 | pIC50 [9]: < 5.30 | pIC50 [10]: < 5.30 | pIC50 [11]: < 5.30 | pIC50 [12]: < 5.30 | pIC50 [13]: < 5.30 | pIC50 [14]: < 5.30 | pIC50 [15]: < 5.30 | pIC50 [16]: < 5.30 | pIC50 [17]: < 5.30 | pIC50 [18]: < 5.30 | pIC50 [19]: < 5.30 | pIC50 [20]: < 5.30 | pIC50 [21]: < 5.30 | pIC50 [22]: < 5.30 | pIC50 [23]: < 5.30 | pIC50 [24]: < 5.30 | pIC50 [25]: < 5.30 | pIC50 [26]: < 5.30 | pIC50 [27]: < 5.30 | pIC50 [28]: < 5.30 | pIC50 [29]: < 5.30 | pIC50 [30]: < 5.30 | pIC50 [31]: < 5.30 | pIC50 [32]: < 5.30 | pIC50 [33]: < 5.30 | pIC50 [34]: < 5.30 | pIC50 [35]: < 5.30 | pIC50 [36]: < 5.30 | pIC50 [37]: < 5.30 | pIC50 [38]: < 5.30 | pIC50 [39]: < 5.30 | pIC50 [40]: < 5.30 | pIC50 [41]: < 5.30
